Test results from paper PMC5655428, “Discovery and pharmacological characterization of a new class of prolyl-tRNA synthetase inhibitor for anti-fibrosis therapy” (PLoS ONE, 2017).
Where two headings read alike, the source gives them in different places.

Assays:
[1] = system: Smad3 and phosphorylated Smad3 in human skin fibroblasts; test: Smad3 activation in western blotting; assay type: cell-based; details: 24 h treatment, then TGF-β 1 ng/mL 30 min; tested at 30 and 300 nM; western blot
Description: Cells were allowed to adhere overnight before being replaced with serum-free FBM for 24 h. Serum-starved cells were first pretreated with samples in DMSO at 30 and 300 nM for 24 h and then stimulated with 1 ng/mL TGF-β for 30 min. Cell lysates were prepared with lysis buffer and cellular proteins (11 μg/well) were separated by sodium dodecyl sulfate-polyacrylamide gel electrophoresis (4–20% Criterion TGX Precast Gel; Bio-Rad, Ontario, CA, USA). Protein bands were then transferred to polyvinylidene fluoride membranes (Trans-Blot Turbo Midi, Bio-Rad). Following blocking, the membranes were incubated with primary antibodies targeted against phospho-Smad3 (Cell Signaling Technology), Smad3 (Cell Signaling Technology) and β-actin (Cell Signaling Technology) followed by horseradish peroxidase-conjugated secondary antibody (Cell Signaling Technology). ECL Prime Western Blotting Detection Reagent (GE Healthcare Bio-Sciences, Little Chalfont, England) and LAS-3000 image analyzer (Fuji-film, Tokyo, Japan) were used for detection. Western blot band intensities were calculated by densitometric analyses with National Institutes of Health image software, Image J. Representative pictures are shown with quantified densitometric data.

[2] = system: primary human skin fibroblast; test: mRNA expression of fibrosis-related genes by real-time quantitative RT-PCR; assay type: cell-based; details: 1-300 nM, TGF-β 1 ng/mL, 24 h
Description: Cells were allowed to adhere overnight before being replaced with serum-free FBM for 24 h. Serum-starved cells were first pretreated with samples in DMSO at concentrations between 1 and 300 nM for 30 min and then stimulated with 1 ng/mL TGF-β for 24 h. Then total RNA was collected from the cells by RNeasy 96 Kit (Qiagen, Valencia, CA, USA) and DNaseI (Qiagen) according to the manufacturer's protocol.
Total RNA was isolated from in vivo samples using ISOGEN II (Nippongene) according to the manufacturer's instructions. In vitro RNA samples were prepared as mentioned above. High Capacity cDNA Reverse Transcription Kit (Life Technologies, Carlsbad, CA, USA) was used for cDNA synthesis. Real-time quantitative RT-PCR reactions were performed as a TaqMan method on a ViiA 7 real-Time PCR System (Life Technologies), using TaqMan Fast Advanced Master Mix (Lifer Technologies) with specific primers on TaqMan Gene Expression Assays (Life Technologies) according to the manufacturer's manual. FAM-probed primers were used: COL1A1, Hs00164004_m1; α-SMA/ACTA2, Hs00426835_g1; fibroblast growth factor 2 (FGF2), Hs00266645_m1; Smad specific E3 ubiquitin protein ligase 2 (SMURF2), Hs00224203_m1; DDIT3, Hs00358796_g1; and glyceraldehyde 3-phosphate dehydrogenase (GAPDH), 4326317E for human in vitro cell assay. FAM-probed and TAMRA-quenched primers (Sigma-Aldrich Japan, Tokyo, Japan) were used: Col1a1, NM_007742; type I collagen alpha 2 (Col1a2), NM_007743; α-Sma/Acta2, NM_007392; and Gapdh, NM_008084 for mouse in vivo assay (S1 Table). The relative mRNA level of the target genes was calculated by the comparative threshold cycle (Ct) method using GAPDH (Gapdh) as an internal control for normalization. The fold change in the expression of each target gene was calculated by the following formula: relative quantification (RQ) = 2^-ΔΔCt.

skin fibroblasts = test: Proline addition assay (α-SMA mRNA); assay type: cell-based, human; details: proline 0.05, 0.2 and 1 mM; compound 1-300 nM; 24 h
Description: Total RNA was isolated from in vivo samples using ISOGEN II (Nippongene) according to the manufacturer's instructions. In vitro RNA samples were prepared as mentioned above. High Capacity cDNA Reverse Transcription Kit (Life Technologies, Carlsbad, CA, USA) was used for cDNA synthesis. Real-time quantitative RT-PCR reactions were performed as a TaqMan method on a ViiA 7 real-Time PCR System (Life Technologies), using TaqMan Fast Advanced Master Mix (Lifer Technologies) with specific primers on TaqMan Gene Expression Assays (Life Technologies) according to the manufacturer's manual. […] The relative mRNA level of the target genes was calculated by the comparative threshold cycle (Ct) method using GAPDH (Gapdh) as an internal control for normalization. The fold change in the expression of each target gene was calculated by the following formula: relative quantification (RQ) = 2^-ΔΔCt.
To evaluate the effect of proline addition on anti-fibrosis by each compound, the cells were allowed to adhere overnight before being replaced with serum-free FBM for 24 h. […] Then real-time quantitative RT-PCR analysis was conducted as mentioned above.

[3] = system: differentiated human skin myofibroblast; test: reverse fibrosis: α-SMA protein in TGF-β-induced differentiated skin myofibroblasts (Protocol 2); assay type: cell-based; details: TGF-β 1 ng/mL 48 h, then compound 48 h without TGF-β
Description: Protocol 2: Cells were allowed to adhere overnight before being replaced with serum-free FBM for 24 h. Cells were then treated with TGF-β (1 ng/mL) for 48 h to induce differentiation to myofibroblast with expressing α-SMA protein. The medium was then removed, and the cells were subsequently treated with or without samples (1–300 nM) in serum-free FBM for an additional 48 h. Cell lysates were prepared with cell lysis buffer (Cell Signaling Technology, Beverly, MA, USA) and subjected to α-SMA ELISA system (Abnova, Taipei, Taiwan) and Pro-type I Collagen α1 (pro-COL1A1) SimpleStep ELISA Kit (Abcam, Cambridge, UK, USA) according to the manufacturer's protocol.

[4] = mouse, in vivo
Description: (§1) The experimenters were blinded to the treatments given to the animals and to the biochemical and histological analyses and the data analyses. Eight-week-old C3H/He male mice (weighing 23~28 g, Japan SLC, Inc., Hamamatsu, Japan) were used for all the in vivo experiments. […] These animals were maintained on a 12/12 h light/dark cycle with constant temperature (23 ± 2°C) under specific pathogen-free conditions. Standard chow diet and water were available ad libitum.
(§2) After acclimatization for 1 weeks, animals were randomly divided according to body weight and treated for 3 to 5 consecutive days as follows. The ear and dorsal skin of mouse were intradermally injected with 20 μL (100 μL, dorsal skin) PBS or 500 ng TGF-β in PBS under anaesthesia with 3–4% sevoflurane. Injections were continued in this manner daily for 3 days (days 0, 1 and 2) or 5 days (days 0, 1, 2, 3 and 4). Treatment protocol included the daily topical application of T-3833261 or HF cream on the ear (40 μL/ear) 1 h before injections into the ear. A vehicle without compounds was applied to control mice. The topical material contained sorbitan sesquioleate (50 g), lanolin (50 g), liquid paraffin (250 g), propylene glycol (50 g), 90% lactic acid (1.5 g), T-3833261 (0.1, 0.3 and 1 g) or HF (0.1 g), and distilled water as the rest material. Topical application of compound was continued for 7 days. Mice were euthanized by cervical dislocation under sevoflurane anesthesia at 3 or 5 days after last TGF-β injection and the ear surrounding the TGF-β injection site was harvested with 8 μm biopsy punch under anesthesia.

[5] = body weight and tolerability on topical application in mice; details: mouse; for tolerability: dermal topical application; for Body weight day 0 / Body weight day 7: topical, mean ± SE (n = 4-8)
Description: as §1, §2

Row | SMILES | concentration showing a decrease in TGF-β-induced accumulation of Smad3 [1] [nM] | concentration showing a decrease in phosphorylated Smad3 (p-Smad3) [1] [nM] | COL1A1 mRNA expression [2] | DDIT3 mRNA expression [2] | FGF2 mRNA expression [2] | SMURF2 mRNA expression [2] | α-SMA mRNA expression [2] | effect of proline addition on inhibition of α-SMA gene expression (skin fibroblasts) | concentration promoting the reduction of α-SMA protein in differentiated myofibroblasts [3] [nM] | concentration reducing α-SMA levels to that of non-stimulated controls [3] [nM] | tolerability [5] | other results
1 | O=C(CC1NCCCC1O)Cn1cnc2cc(Br)c(Cl)cc2c1=O (centres unmarked) [HF, Halofuginone, reference compound] | 300 | 300 | reduced to near the level of non-stimulated control | dose-dependently increased DDIT3 expression | dose-dependently increased SMURF2 and FGF2 expressions | dose-dependently increased SMURF2 and FGF2 expressions | suppressed TGF-β-induced expression of α-SMA | attenuated by adding proline to the medium | 100 | 300 | well-tolerated | Body weight day 0 [4]: 22.5 ± 0.3 g; Body weight day 7 [4]: 23.7 ± 0.3 g; body weight of the mice after one week of continuous topical application [4]: did not change
2 | Cn1cc(-c2cc(F)cc(CNC(=O)c3nccc4nc(C5CCCC5)[nH]c34)c2)cn1 [T-3833261, 2-Cyclopentyl-N-(3-fluoro-5-(1-methyl-1H-pyrazol-4-yl)benzyl)-3H-imidazo[4,5-c]pyridine-4-carboxamide] | 30 | 300 | suppressed expression of these fibrotic genes | dose-dependently increased DDIT3 expression | dose-dependently increased SMURF2 and FGF2 expressions | dose-dependently increased SMURF2 and FGF2 expressions | suppressed expression of these fibrotic genes | proline addition did not affect the activity | 100 | 300 | well-tolerated | Body weight day 0 ([5]; 0.01% cream): 22.9 ± 0.8 g; Body weight day 7 ([5]; 0.01% cream): 23.8 ± 0.5 g; Body weight day 0 ([5]; 0.03% cream): 23.1 ± 0.6 g; Body weight day 7 ([5]; 0.03% cream): 23.4 ± 0.4 g; Body weight day 0 ([5]; 0.1% cream): 22.4 ± 0.4 g; Body weight day 7 ([5]; 0.1% cream): 22.2 ± 0.5 g; body weight of the mice after one week of continuous topical application ([5]; topical cream): did not change
